PubChem BioAssay AID2060488 (Molecular Pharmacology Branch, DTP, NCI, 2025)

System: 966289-007-R4-J1-PDC complex spheroid viability
Assay: Anticancer human tumor 966289-007-R4-J1-PDC patient-derived pancreatic adenocarcinoma cell line growth inhibition [GQUAD]
Conditions: for IC50: curve of first compound; for viability, T/C: stronger effect = lower value
Excerpt: DNA G-quadruplex Stabilizer Agents in Combinations in Complex Spheroids
A high-throughput screen of multi-cell type tumor spheroids was designed to identify active combinations of DNA G-quadruplex stabilizer agents and targeted small molecules. Complex spheroids include a stromal component modeled by human endothelial cells (HUVEC) and fibroblasts modeled by human mesenchymal stem cells (MSCs). The concentration ranges selected for each drug and investigational agent were based upon clinically achievable concentrations if the clinical Cmax of the agent was known.
Compounds. The drugs and investigational agents: pidnarulex (CX-5461; NSC782164), APTO-253 (NSC789042), BRACO-19 (NSC847499), peposertib (NSC802822), ceralasertib (NSC780249), elimusertib (NSC800525), camonsertib (NSC841442), AZD-1390 (NSC803789), olaparib (NSC753686), talazoparib (NSC767125), ART-558 (NSC835418), sotorasib (NSC818433), MRTX-1133 (NSC836407), SN-38 (NSC673596), topotecan (NSC609699), etoposide (NSC141540), doxorubicin (NSC123127), gemcitabine (NSC613327), 5-fluorouracil (NSC19893), paclitaxel (NSC125973), vemurafenib (NSC761431), panobinostat (NSC761190), R-306465 (JNJ-16241199; NSC773264), adavosertib (NSC754352), TP-3654 (NSC805149), carboplatin (NSC241240), KSQ-4279 (NSC840948), and staurosporine (NSC755774) were obtained from the National Cancer Institute (NCI) Developmental Therapeutics Program Chemical Repository (34). The FDA-approved anticancer drug set is available from the NCI Developmental Therapeutics Program. […] The stock solutions were prepared in dimethyl sulfoxide (DMSO, Sigma-Aldrich, St. Louis, MO, cat. D2650) at 800-fold the tested concentration and stored at -70 degrees C prior to their use. All drugs and investigational agents were tested over a range starting from a high concentration at or near the clinical Cmax and decreasing in half-log increments. If the clinical Cmax for an agent had not been determined, the highest concentration tested was 10 microM.
2.3 Cell Culture. All cells were maintained in an incubator at 37 degrees C and 5% CO2 with 95% humidity. The PDC lines were cultured according to standard operating procedures established by the NCI PDMR. All PDCs were thawed and cultured in Matrigel-coated flasks prepared with a working solution of 1X Ham's F-12 nutrient mix, without supplementation (Invitrogen, cat. 11765054), 100 U/mL penicillin-streptomycin (Invitrogen, cat. 15140122), and 2.5% Matrigel (Corning Inc., cat. 354248) for the first three passages. The 857933-349-R-J2-PDC line was cultured in 6C/Colon 1B media, which includes advanced DMEM/F-12 (Thermo Fisher Scientific, cat. 12634028), 10 mM HEPES (Thermo Fisher Scientific, cat. 15630080), 1X GlutaMAX supplement (Thermo Fisher Scientific, cat. 35050061), 0.1 mg/mL primocin (InvivoGen, cat. ant-pm-2), 10% defined fetal bovine serum, heat inactivated (HyClone Laboratories Inc., cat. SH30070.03HI), 50% L-WRN conditioned media (ATCC, cat. CRL-3276), 1.25 mM N-Acetyl-L-cysteine (Sigma-Aldrich, cat. A9165), 10 mM nicotinamide (Sigma-Aldrich, cat. N0636), 1X B-27 supplement (Thermo Fisher Scientific, cat. 17504044), 1X N-2 supplement (Thermo Fisher Scientific, cat. 17502048), 10 microM Y-27632 dihydrochloride (Tocris Bioscience, cat. 1254), and 50 ng/mL human EGF recombinant protein (Thermo Fisher Scientific, cat. PHG0311). The 485176-168-R4-J1-PDC line was cultured in Panc media, which includes all 6C/Colon 1B media components plus 100 ng/mL human FGF-10 (Thermo Fisher Scientific, cat. 100-26), 500 nM SB-431542 (Selleckchem, cat. S1067), and gastrin (Tocris, cat. 3006).
[…]

[1] = second compound 0.0316 µM, first compound 0.0316 µM
[2] = second compound 0.0316 µM, first compound 0.316 µM
[3] = second compound 0.1 µM, first compound 0.0316 µM
[4] = second compound 0.1 µM, first compound 0.316 µM
[5] = second compound 0.316 µM, first compound 0.0316 µM
[6] = second compound 0.316 µM, first compound 0.316 µM
[7] = second compound 1 µM, first compound 0.0316 µM
[8] = second compound 1 µM, first compound 0.316 µM
[9] = second compound 3.16 µM, first compound 0.0316 µM
[10] = second compound 3.16 µM, first compound 0.316 µM
[11] = second compound 10 µM, first compound 0.0316 µM
[12] = second compound 10 µM, first compound 0.316 µM
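Note: spheroids exposed to the agents for seven days before readout.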
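Throughout, for viability, T/C: percent viability relative to DMSO vehicle control wells taken as 100%.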

COc1ccc([C@@H](O)c2cc(-c3ncnc4cc(N5CCOCC5)ccc34)c(F)cc2Cl)nn1 + CN(C)c1ccc(Nc2c3ccc(NC(=O)CCN4CCCC4)cc3nc3cc(NC(=O)CCN4CCCC4)ccc23)cc1
IC50 (second compound 0.0316 µM): > 10000 nM | IC50 (second compound 0.1 µM): > 10000 nM | IC50 (second compound 0.316 µM): > 10000 nM | IC50 (second compound 1 µM): > 10000 nM | IC50 (second compound 3.16 µM): > 10000 nM | IC50 (second compound 10 µM): 1970 nM | viability, T/C [1]: 104% | viability, T/C (second compound 0.0316 µM, first compound 0.1 µM): 98.6% | viability, T/C [2]: 104% | viability, T/C (second compound 0.0316 µM, first compound 1 µM): 108% | viability, T/C (second compound 0.0316 µM, first compound 3.16 µM): 110% | viability, T/C (second compound 0.0316 µM, first compound 10 µM): 99.5% | viability, T/C [3]: 101% | viability, T/C (second compound 0.1 µM, first compound 0.1 µM): 97.8% | viability, T/C [4]: 103% | viability, T/C (second compound 0.1 µM, first compound 1 µM): 104% | viability, T/C (second compound 0.1 µM, first compound 3.16 µM): 109% | viability, T/C (second compound 0.1 µM, first compound 10 µM): 98.1% | viability, T/C [5]: 99.8% | viability, T/C (second compound 0.316 µM, first compound 0.1 µM): 99.5% | viability, T/C [6]: 106% | viability, T/C (second compound 0.316 µM, first compound 1 µM): 107% | viability, T/C (second compound 0.316 µM, first compound 3.16 µM): 107% | viability, T/C (second compound 0.316 µM, first compound 10 µM): 90.6% | viability, T/C [7]: 101% | viability, T/C (second compound 1 µM, first compound 0.1 µM): 101% | viability, T/C [8]: 107% | viability, T/C (second compound 1 µM, first compound 1 µM): 108% | viability, T/C (second compound 1 µM, first compound 3.16 µM): 111% | viability, T/C (second compound 1 µM, first compound 10 µM): 93% | viability, T/C [9]: 101% | viability, T/C (second compound 3.16 µM, first compound 0.1 µM): 97.4% | viability, T/C [10]: 108% | viability, T/C (second compound 3.16 µM, first compound 1 µM): 105% | viability, T/C (second compound 3.16 µM, first compound 3.16 µM): 109% | viability, T/C (second compound 3.16 µM, first compound 10 µM): 83.4% | viability, T/C [11]: 103% | viability, T/C (second compound 10 µM, first compound 0.1 µM): 97.3% | viability, T/C [12]: 101% | viability, T/C (second compound 10 µM, first compound 1 µM): 89.2% | viability, T/C (second compound 10 µM, first compound 3.16 µM): 22.6% | viability, T/C (second compound 10 µM, first compound 10 µM): 8.27%

Cn1ncnc1[C@H]1c2n[nH]c(=O)c3cc(F)cc(c23)N[C@@H]1c1ccc(F)cc1 + CN(C)c1ccc(Nc2c3ccc(NC(=O)CCN4CCCC4)cc3nc3cc(NC(=O)CCN4CCCC4)ccc23)cc1
IC50 (second compound 0.0316 µM): 161 nM | IC50 (second compound 0.1 µM): 164 nM | IC50 (second compound 0.316 µM): 168 nM | IC50 (second compound 1 µM): 137 nM | IC50 (second compound 3.16 µM): 104 nM | IC50 (second compound 10 µM): 47.5 nM | viability, T/C (second compound 0.0316 µM, first compound 0.000999 µM): 107% | viability, T/C (second compound 0.0316 µM, first compound 0.00316 µM): 101% | viability, T/C (second compound 0.0316 µM, first compound 0.00999 µM): 109% | viability, T/C [1]: 104% | viability, T/C (second compound 0.0316 µM, first compound 0.0999 µM): 71.7% | viability, T/C [2]: 19% | viability, T/C (second compound 0.1 µM, first compound 0.000999 µM): 105% | viability, T/C (second compound 0.1 µM, first compound 0.00316 µM): 101% | viability, T/C (second compound 0.1 µM, first compound 0.00999 µM): 105% | viability, T/C [3]: 105% | viability, T/C (second compound 0.1 µM, first compound 0.0999 µM): 75.2% | viability, T/C [4]: 16.9% | viability, T/C (second compound 0.316 µM, first compound 0.000999 µM): 95.1% | viability, T/C (second compound 0.316 µM, first compound 0.00316 µM): 99.7% | viability, T/C (second compound 0.316 µM, first compound 0.00999 µM): 104% | viability, T/C [5]: 107% | viability, T/C (second compound 0.316 µM, first compound 0.0999 µM): 73.3% | viability, T/C [6]: 21.7% | viability, T/C (second compound 1 µM, first compound 0.000999 µM): 95.9% | viability, T/C (second compound 1 µM, first compound 0.00316 µM): 97.2% | viability, T/C (second compound 1 µM, first compound 0.00999 µM): 104% | viability, T/C [7]: 106% | viability, T/C (second compound 1 µM, first compound 0.0999 µM): 62.5% | viability, T/C [8]: 16.9% | viability, T/C (second compound 3.16 µM, first compound 0.000999 µM): 91.5% | viability, T/C (second compound 3.16 µM, first compound 0.00316 µM): 109% | viability, T/C (second compound 3.16 µM, first compound 0.00999 µM): 109% | viability, T/C [9]: 104% | viability, T/C (second compound 3.16 µM, first compound 0.0999 µM): 51.2% | viability, T/C [10]: 13% | viability, T/C (second compound 10 µM, first compound 0.000999 µM): 103% | viability, T/C (second compound 10 µM, first compound 0.00316 µM): 104% | viability, T/C (second compound 10 µM, first compound 0.00999 µM): 102% | viability, T/C [11]: 69.1% | viability, T/C (second compound 10 µM, first compound 0.0999 µM): 15% | viability, T/C [12]: 5.65%
